{"source": "patent US9505798B2", "about": "“Steroid compounds as RORyt modulators and uses thereof” (New York University, priority 2010, dated 2016)", "format_in_all_cases": "cell-based", "key": {"RORα": {"molecular_target": "T1, RORα (Mus musculus, UniProt P51448)", "T1 construct": "mouse RORα (amino acids 142 to end); expressed in transfected cells", "T1 sequence (P51448 142-523 limits assumed)": "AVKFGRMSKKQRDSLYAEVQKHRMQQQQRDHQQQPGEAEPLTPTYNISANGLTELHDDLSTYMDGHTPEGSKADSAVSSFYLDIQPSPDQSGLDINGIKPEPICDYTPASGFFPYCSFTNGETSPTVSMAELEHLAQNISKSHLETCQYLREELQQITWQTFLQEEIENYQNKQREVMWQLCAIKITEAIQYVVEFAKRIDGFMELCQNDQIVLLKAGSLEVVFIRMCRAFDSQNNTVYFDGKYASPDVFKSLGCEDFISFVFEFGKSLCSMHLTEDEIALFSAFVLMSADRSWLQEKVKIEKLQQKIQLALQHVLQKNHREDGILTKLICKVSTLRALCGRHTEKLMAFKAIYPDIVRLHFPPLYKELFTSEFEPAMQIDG", "test": "S2 cell RORα luciferase reporter", "settings": "10 μM, FIG. 1c", "text": "The Drosophila S2 cell line was originally purchased from Invitrogen and was maintained in Schneider's medium supplemented with 10% heat-inactivated bovine fetal calf serum and antibiotics (Invitrogen). Gal4 DNA binding domain (G4 DBD) corresponding to amino acids 1 through 147 of Gal4 protein was PCR amplified to make a fusion construct with mouse RORγt (amino acids 79 to the carboxyl terminal end) lacking its DNA binding domain. The resulting chimeric gene was subcloned into the copper inducible pMT/V5-His A vector (Invitrogen). In a similar manner, Gal4 fusion constructs were prepared with mouse RORα (amino acids 142 to end) or Drosophila DHR3 (amino acids 120 to end). Coding sequences for firefly luciferase (Promega) were PCR amplified and subcloned into pUAST vector containing Gal4 binding enhancer sequences. Renilla luciferase construct under the polIII promoter was obtained from Dr. Dasgupta's laboratory (NYU medical center). In order to generate stable cell lines, cells were co-transfected with pMT-G4 DBD-RORγt, pMT-G4 DBD-RORα, pMT-G4 DBD-DHR3, or pMT-G4 DBDVP16 and pHygro plasmids (Invitrogen) and screened for resistant colonies in the presence of hygromycin (0.3 mg/mL). […]"}, "human androgen receptor": {"molecular_target": "T2, human androgen receptor (Homo sapiens, UniProt P10275)", "T2 construct": "expressed in transfected cells; host or cells: Drosophila S2 cells, plasmid pMK33-hAR", "T2 sequence (P10275 whole entry)": "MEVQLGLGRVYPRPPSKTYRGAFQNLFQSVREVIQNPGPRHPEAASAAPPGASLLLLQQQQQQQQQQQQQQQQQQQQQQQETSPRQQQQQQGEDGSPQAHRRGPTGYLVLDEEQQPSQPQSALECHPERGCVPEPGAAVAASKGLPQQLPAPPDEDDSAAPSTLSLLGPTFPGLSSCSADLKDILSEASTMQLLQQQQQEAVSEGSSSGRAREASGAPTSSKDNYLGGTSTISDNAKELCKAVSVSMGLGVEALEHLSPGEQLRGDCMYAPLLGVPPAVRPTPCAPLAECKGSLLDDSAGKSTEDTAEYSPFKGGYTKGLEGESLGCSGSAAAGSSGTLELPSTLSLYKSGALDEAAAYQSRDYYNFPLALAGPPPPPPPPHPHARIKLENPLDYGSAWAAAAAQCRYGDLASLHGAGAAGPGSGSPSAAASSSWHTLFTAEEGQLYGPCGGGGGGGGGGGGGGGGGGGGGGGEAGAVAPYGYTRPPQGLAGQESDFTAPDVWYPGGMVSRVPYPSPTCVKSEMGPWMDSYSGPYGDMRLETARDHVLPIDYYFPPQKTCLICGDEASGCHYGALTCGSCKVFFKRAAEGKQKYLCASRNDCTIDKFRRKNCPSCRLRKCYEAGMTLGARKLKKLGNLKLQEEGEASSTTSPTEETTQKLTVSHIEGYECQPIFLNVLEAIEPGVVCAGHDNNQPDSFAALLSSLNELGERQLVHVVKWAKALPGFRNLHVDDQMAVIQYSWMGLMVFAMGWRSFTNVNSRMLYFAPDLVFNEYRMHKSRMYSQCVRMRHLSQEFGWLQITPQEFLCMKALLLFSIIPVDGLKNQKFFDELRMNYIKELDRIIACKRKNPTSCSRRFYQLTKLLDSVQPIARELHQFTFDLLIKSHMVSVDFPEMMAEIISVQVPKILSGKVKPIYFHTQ", "test": "S2 cell human androgen receptor reporter"}, "C. elegans Daf12": {"molecular_target": "T3, C. elegans Daf12 (Caenorhabditis elegans, UniProt G5EFF5)", "T3 construct": "C. elegans Daf12 (amino acids 184 to end); expressed in transfected cells; host or cells: Drosophila S2 cells", "T3 sequence (G5EFF5 184-753 limits assumed)": "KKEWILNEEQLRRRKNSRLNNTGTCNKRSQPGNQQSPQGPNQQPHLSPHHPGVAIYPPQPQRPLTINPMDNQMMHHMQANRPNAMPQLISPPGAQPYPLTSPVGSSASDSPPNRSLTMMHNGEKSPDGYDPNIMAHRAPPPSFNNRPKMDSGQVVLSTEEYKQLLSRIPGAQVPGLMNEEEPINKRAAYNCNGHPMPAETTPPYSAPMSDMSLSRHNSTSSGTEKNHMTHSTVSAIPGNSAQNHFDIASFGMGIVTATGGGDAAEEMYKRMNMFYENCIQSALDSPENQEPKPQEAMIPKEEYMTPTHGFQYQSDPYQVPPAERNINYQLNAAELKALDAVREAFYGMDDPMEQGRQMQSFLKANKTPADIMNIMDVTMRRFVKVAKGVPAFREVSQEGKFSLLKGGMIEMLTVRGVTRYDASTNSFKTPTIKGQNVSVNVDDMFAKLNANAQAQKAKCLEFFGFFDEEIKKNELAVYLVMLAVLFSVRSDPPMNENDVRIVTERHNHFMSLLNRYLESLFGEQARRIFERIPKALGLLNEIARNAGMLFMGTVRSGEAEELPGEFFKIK", "test": "S2 cell Daf12 reporter", "text": "The Drosophila S2 cell line was originally purchased from Invitrogen and was maintained in Schneider's Drosophila medium supplemented with 10% heat-inactivated bovine fetal calf serum and 1× antibiotic-antimycotic solution (Invitrogen). The Gal4 DNA binding domain (G4 DBD), corresponding to amino acids 1 through 147 of the Gal4 protein, was PCR amplified to make the fusion construct with murine RORγ (amino acids 79 to the carboxyl terminal end) lacking its DNA binding domain. The resulting chimeric gene was subcloned into the copper inducible pMT/V5-His A vector (Invitrogen) and into the constitutive pAc vector. Similar methods yielded fusion constructs between G4 DBD and murine RORα (amino acids 142 to end), Drosophila DHR3 (amino acids 120 to end), C. elegans Daf12 (amino acids 184 to end), and herpes simplex virus VP16 (amino acids 413 to end). Coding sequences for firefly luciferase (Promega) were PCR amplified and subcloned into the pUAST vector containing five Gal4 binding enhancer sequences. The Renilla luciferase construct under a pol III promoter and the pAc vector were obtained from R. Dasgupta (NYU School of Medicine). […]"}}, "data": [{"smiles": "C[C@H]1O[C@@H](O[C@H]2[C@@H](O)C[C@H](O[C@H]3[C@@H](O)C[C@H](O[C@H]4CC[C@@]5(C)[C@H](CC[C@@H]6[C@@H]5C[C@@H](O)[C@]5(C)[C@@H](C7=CC(=O)OC7)CC[C@]65O)C4)O[C@@H]3C)O[C@@H]2C)C[C@H](O)[C@@H]1O", "note": "[Digoxin]", "values": [{"measurement": "effect on transcriptional activity of RORα", "setting": "RORα", "value": "no effect"}, {"measurement": "inhibition of human androgen receptor activity", "setting": "human androgen receptor", "value": "did not inhibit"}, {"measurement": "inhibition of C. elegans Daf12 activity", "setting": "C. elegans Daf12", "value": "did not inhibit"}]}]}
